Laboratory results as given in ChEMBL document CHEMBL3885881, “DrugMatrix”.

Species: Rattus norvegicus
Experiment: DrugMatrix - Regimen: Daily Repeat
Assay type: toxicity, organism-based, Sprague-Dawley
Parameters: regimen Daily Repeat, gender Male, age 6-8 weeks
Conditions: in vivo, ip, route intraperitoneal, vehicle 100 % SALINE; for ABSOLUTE BASOPHIL / ABSOLUTE EOSINOPHIL / ABSOLUTE LYMPHOCYTE / ABSOLUTE MONOCYTE / ABSOLUTE SEGMENTED NEUTROPHIL / BASOPHIL / EOSINOPHIL / ERYTHROCYTE COUNT / HEMATOCRIT / HEMOGLOBIN / LEUKOCYTE COUNT / LYMPHOCYTE / MEAN CORPUSCULAR HEMOGLOBIN / MEAN CORPUSCULAR HEMOGLOBIN CONCENTRATION / MEAN CORPUSCULAR VOLUME / MONOCYTE / NEUTROPHIL / PLATELET COUNT: tissue Blood
[1] = 0 mg/kg, 120 h, dose level Control, time 5 day
[2] = 0 mg/kg, 120 h, tissue Plasma, dose level Control, time 5 day
[3] = 0 mg/kg, […], dose level Control, time 14 day
[4] = 0 mg/kg, […], dose level Control, time 28 day
[5] = 0 mg/kg, […], tissue Plasma, dose level Control, time 14 day
[6] = 0 mg/kg, […], tissue Plasma, dose level Control, time 28 day
[7] = 2 mg/kg, 120 h, dose level High, time 5 day
[8] = 2 mg/kg, 120 h, tissue Plasma, dose level High, time 5 day
[9] = 2 mg/kg, […], dose level High, time 14 day
[10] = 2 mg/kg, […], dose level High, time 28 day

CADMIUM DICHLORIDE gave an ABSOLUTE BASOPHIL [1] of 32 cells/µL, an ABSOLUTE EOSINOPHIL [1] of 110 cells/µL and an ABSOLUTE LYMPHOCYTE [1] of 6630 cells/µL. For the same substance, the ABSOLUTE MONOCYTE [1] was 140 cells/µL, the ABSOLUTE SEGMENTED NEUTROPHIL [1] was 1170 cells/µL and the BASOPHIL [1] was 0.38%. The EOSINOPHIL [1] was 1.28%, the “ERYTHROCYTE COUNT” value [1] was 7.45 x10E6/uL and the HEMATOCRIT [1] was 45.74%. The HEMOGLOBIN [1] was 14.72 G/DL, the “LEUKOCYTE COUNT” value [1] was 8.11 x10E3/uL and the LYMPHOCYTE [1] was 81.3%. The “MEAN CORPUSCULAR HEMOGLOBIN” value [1] was 19.76 pg, the “MEAN CORPUSCULAR HEMOGLOBIN CONCENTRATION” value [1] was 32.16 G/DL and the “MEAN CORPUSCULAR VOLUME” value [1] was 61.38 fL. For the same substance, the MONOCYTE [1] was 1.76%, the NEUTROPHIL [1] was 14.9% and the “PLATELET COUNT” value [1] was 1322.4 x10E3/uL. The “ALANINE AMINOTRANSFERASE” value [2] was 25.8 u/L, the ALBUMIN [2] was 3.64 G/DL and the “ASPARTATE AMINOTRANSFERASE” value [2] was 81.4 u/L. The “BLOOD UREA NITROGEN” value [2] was 14.4 mg/dL, the CHOLESTEROL [2] was 69.2 mg/dL and the “CREATINE PHOSPHOKINASE” value [2] was 303.2 u/L. For the same substance, the CREATININE [2] was 0.56 mg/dL, the GLUCOSE [2] was 125.4 mg/dL and the “LACTATE DEHYDROGENASE” value [2] was 105.4 u/L. The LIPASE [2] was 22.4 u/L, the POTASSIUM [2] was 5.52 MEQ/L and the SODIUM [2] was 147 MEQ/L. The “TOTAL BILIRUBIN” value [2] was 0.2 mg/dL, the “TOTAL PROTEIN” value [2] was 6.1 G/DL and the “URIC ACID” value [2] was 1.06 mg/dL. The ABSOLUTE BASOPHIL [3] was 130 cells/µL, the ABSOLUTE EOSINOPHIL [3] was 140 cells/µL and the ABSOLUTE LYMPHOCYTE [3] was 13500 cells/µL. For the same substance, the ABSOLUTE MONOCYTE [3] was 400 cells/µL, the ABSOLUTE SEGMENTED NEUTROPHIL [3] was 2330 cells/µL and the BASOPHIL [3] was 0.72%. For the same substance, the EOSINOPHIL [3] was 0.86%, the “ERYTHROCYTE COUNT” value [3] was 7.74 x10E6/uL and the HEMATOCRIT [3] was 45.98%. The “LEUKOCYTE COUNT” value [3] was 16.61 x10E3/uL, the LYMPHOCYTE [3] was 81.34% and the “MEAN CORPUSCULAR HEMOGLOBIN” value [3] was 18 pg. For the same substance, the “MEAN CORPUSCULAR HEMOGLOBIN CONCENTRATION” value [3] was 30.22 G/DL, the “MEAN CORPUSCULAR VOLUME” value [3] was 59.4 fL and the MONOCYTE [3] was 2.46%. For the same substance, the NEUTROPHIL [3] was 14.14%, the “PLATELET COUNT” value [3] was 1445.5 x10E3/uL and the ABSOLUTE BASOPHIL [4] was 91 cells/µL. It also gave an ABSOLUTE EOSINOPHIL [4] of 110 cells/µL, an ABSOLUTE LYMPHOCYTE [4] of 9910 cells/µL and an ABSOLUTE MONOCYTE [4] of 210 cells/µL. It also gave an ABSOLUTE SEGMENTED NEUTROPHIL [4] of 1560 cells/µL, a BASOPHIL [4] of 0.77% and an EOSINOPHIL [4] of 0.92%. For the same substance, the “ERYTHROCYTE COUNT” value [4] was 8.21 x10E6/uL, the HEMATOCRIT [4] was 47.53% and the HEMOGLOBIN [4] was 15.65 G/DL. For the same substance, the “LEUKOCYTE COUNT” value [4] was 11.91 x10E3/uL, the LYMPHOCYTE [4] was 83.34% and the “MEAN CORPUSCULAR HEMOGLOBIN” value [4] was 19.07 pg. For the same substance, the “MEAN CORPUSCULAR HEMOGLOBIN CONCENTRATION” value [4] was 32.93 G/DL, the “MEAN CORPUSCULAR VOLUME” value [4] was 57.9 fL and the MONOCYTE [4] was 1.68%. For the same substance, the NEUTROPHIL [4] was 12.97%, the “PLATELET COUNT” value [4] was 1323.8 x10E3/uL and the “ALANINE AMINOTRANSFERASE” value [5] was 31.6 u/L. The ALBUMIN [5] was 3.66 G/DL, the “ALKALINE PHOSPHATASE” value [5] was 228.6 u/L and the “ASPARTATE AMINOTRANSFERASE” value [5] was 79.6 u/L. The “BLOOD UREA NITROGEN” value [5] was 11.2 mg/dL, the CHLORIDE [5] was 107 MEQ/L and the CHOLESTEROL [5] was 57 mg/dL. The CREATININE [5] was 0.5 mg/dL, the GLUCOSE [5] was 124.4 mg/dL and the “LACTATE DEHYDROGENASE” value [5] was 106.4 u/L. For the same substance, the LIPASE [5] was 24.4 u/L, the PHOSPHORUS [5] was 10.52 mg/dL and the POTASSIUM [5] was 6.34 MEQ/L. For the same substance, the SODIUM [5] was 149.2 MEQ/L, the “TOTAL BILIRUBIN” value [5] was 0.2 mg/dL and the “TOTAL PROTEIN” value [5] was 6.48 G/DL. For the same substance, the “URIC ACID” value [5] was 0.94 mg/dL, the “ALANINE AMINOTRANSFERASE” value [6] was 30 u/L and the ALBUMIN [6] was 3.71 G/DL. The “ALKALINE PHOSPHATASE” value [6] was 186.8 u/L, the “ASPARTATE AMINOTRANSFERASE” value [6] was 78.2 u/L and the “BLOOD UREA NITROGEN” value [6] was 14.2 mg/dL. The CHOLESTEROL [6] was 44.9 mg/dL, the “CREATINE PHOSPHOKINASE” value [6] was 334.3 u/L and the CREATININE [6] was 0.6 mg/dL. The GLUCOSE [6] was 147.2 mg/dL, the “LACTATE DEHYDROGENASE” value [6] was 123.1 u/L and the LIPASE [6] was 9.6 u/L. The PHOSPHORUS [6] was 10.01 mg/dL, the POTASSIUM [6] was 6.57 MEQ/L and the SODIUM [6] was 149.5 MEQ/L. For the same substance, the “TOTAL BILIRUBIN” value [6] was 0.21 mg/dL, the “TOTAL PROTEIN” value [6] was 6.66 G/DL and the “URIC ACID” value [6] was 1.26 mg/dL. For the same substance, the ABSOLUTE BASOPHIL [7] was 82 cells/µL, the ABSOLUTE EOSINOPHIL [7] was 170 cells/µL and the ABSOLUTE LYMPHOCYTE [7] was 6790 cells/µL. For the same substance, the ABSOLUTE MONOCYTE [7] was 750 cells/µL, the “ABSOLUTE SEGMENTED NEUTROPHIL” value [7] was 6.49 CELLS/uL and the BASOPHIL [7] was 0.52%. For the same substance, the EOSINOPHIL [7] was 1.36%, the “ERYTHROCYTE COUNT” value [7] was 7.45 x10E6/uL and the HEMATOCRIT [7] was 43.86%. The HEMOGLOBIN [7] was 14.46 G/DL, the “LEUKOCYTE COUNT” value [7] was 14.43 x10E3/uL and the LYMPHOCYTE [7] was 52.2%. For the same substance, the “MEAN CORPUSCULAR HEMOGLOBIN” value [7] was 19.4 pg, the “MEAN CORPUSCULAR HEMOGLOBIN CONCENTRATION” value [7] was 32.92 G/DL and the “MEAN CORPUSCULAR VOLUME” value [7] was 59.02 fL. For the same substance, the MONOCYTE [7] was 5.12%, the NEUTROPHIL [7] was 39.98% and the “PLATELET COUNT” value [7] was 1991.4 x10E3/uL. The “ALANINE AMINOTRANSFERASE” value [8] was 32 u/L, the ALBUMIN [8] was 3.14 G/DL and the “ALKALINE PHOSPHATASE” value [8] was 100.2 u/L. For the same substance, the “ASPARTATE AMINOTRANSFERASE” value [8] was 134 u/L, the “BLOOD UREA NITROGEN” value [8] was 16.8 mg/dL and the CHOLESTEROL [8] was 54.8 mg/dL. The “CREATINE PHOSPHOKINASE” value [8] was 243.4 u/L, the CREATININE [8] was 0.44 mg/dL and the GLUCOSE [8] was 120.4 mg/dL. The “LACTATE DEHYDROGENASE” value [8] was 161.2 u/L, the LIPASE [8] was 76.6 u/L and the PHOSPHORUS [8] was 11.2 mg/dL. For the same substance, the POTASSIUM [8] was 6.38 MEQ/L, the SODIUM [8] was 146 MEQ/L and the “TOTAL BILIRUBIN” value [8] was 0.2 mg/dL. The “TOTAL PROTEIN” value [8] was 5.32 G/DL, the “URIC ACID” value [8] was 1.7 mg/dL and the ABSOLUTE BASOPHIL [9] was 180 cells/µL. For the same substance, the ABSOLUTE EOSINOPHIL [9] was 86 cells/µL, the ABSOLUTE LYMPHOCYTE [9] was 8270 cells/µL and the ABSOLUTE MONOCYTE [9] was 890 cells/µL. The “ABSOLUTE SEGMENTED NEUTROPHIL” value [9] was 6.16 CELLS/uL, the BASOPHIL [9] was 1.22% and the EOSINOPHIL [9] was 0.6%. The “ERYTHROCYTE COUNT” value [9] was 7.03 x10E6/uL, the HEMATOCRIT [9] was 40.98% and the HEMOGLOBIN [9] was 13.48 G/DL. The “LEUKOCYTE COUNT” value [9] was 15.72 x10E3/uL, the LYMPHOCYTE [9] was 52.14% and the “MEAN CORPUSCULAR HEMOGLOBIN” value [9] was 19.2 pg. For the same substance, the “MEAN CORPUSCULAR HEMOGLOBIN CONCENTRATION” value [9] was 32.92 G/DL, the “MEAN CORPUSCULAR VOLUME” value [9] was 58.34 fL and the MONOCYTE [9] was 5.4%. For the same substance, the NEUTROPHIL [9] was 39.7%, the “PLATELET COUNT” value [9] was 2275.2 x10E3/uL and the ABSOLUTE BASOPHIL [10] was 270 cells/µL. For the same substance, the ABSOLUTE EOSINOPHIL [10] was 150 cells/µL, the ABSOLUTE LYMPHOCYTE [10] was 12500 cells/µL and the ABSOLUTE MONOCYTE [10] was 620 cells/µL. It also gave an ABSOLUTE SEGMENTED NEUTROPHIL [10] of 4220 cells/µL, a BASOPHIL [10] of 1.34% and an EOSINOPHIL [10] of 0.93%. For the same substance, the “ERYTHROCYTE COUNT” value [10] was 7.42 x10E6/uL, the HEMATOCRIT [10] was 44.63% and the “LEUKOCYTE COUNT” value [10] was 17.89 x10E3/uL. For the same substance, the LYMPHOCYTE [10] was 68.87%, the “MEAN CORPUSCULAR HEMOGLOBIN” value [10] was 18.83 pg and the “MEAN CORPUSCULAR HEMOGLOBIN CONCENTRATION” value [10] was 31.21 G/DL. It also gave an MONOCYTE [10] of 3.41%.
